Biological target: T1, WT BTK protein (Homo sapiens, UniProt Q06187)
T1 construct: measured for intracellular BTK protein levels by Western blotting; endogenous in cells; host or cells: TMD-8 or RAMOS cells
Assay: BTK protein degradation assay (Western blotting), WT BTK
Type: cell-based
Details: concentration range accounting for 50% degradation of WT BTK protein, TMD-8 or RAMOS cells, 24 hours
Summary of the method: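 BTK levels were read by Western blotting (GAPDH and β-actin normalisers) in RIPA lysates of TMD-8 cells exposed to compounds for 24 h at 1×10^6 cells/mL. Results scored in ranges of the concentration producing 50% loss of WT BTK.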

T1 sequence (Q06187 whole entry): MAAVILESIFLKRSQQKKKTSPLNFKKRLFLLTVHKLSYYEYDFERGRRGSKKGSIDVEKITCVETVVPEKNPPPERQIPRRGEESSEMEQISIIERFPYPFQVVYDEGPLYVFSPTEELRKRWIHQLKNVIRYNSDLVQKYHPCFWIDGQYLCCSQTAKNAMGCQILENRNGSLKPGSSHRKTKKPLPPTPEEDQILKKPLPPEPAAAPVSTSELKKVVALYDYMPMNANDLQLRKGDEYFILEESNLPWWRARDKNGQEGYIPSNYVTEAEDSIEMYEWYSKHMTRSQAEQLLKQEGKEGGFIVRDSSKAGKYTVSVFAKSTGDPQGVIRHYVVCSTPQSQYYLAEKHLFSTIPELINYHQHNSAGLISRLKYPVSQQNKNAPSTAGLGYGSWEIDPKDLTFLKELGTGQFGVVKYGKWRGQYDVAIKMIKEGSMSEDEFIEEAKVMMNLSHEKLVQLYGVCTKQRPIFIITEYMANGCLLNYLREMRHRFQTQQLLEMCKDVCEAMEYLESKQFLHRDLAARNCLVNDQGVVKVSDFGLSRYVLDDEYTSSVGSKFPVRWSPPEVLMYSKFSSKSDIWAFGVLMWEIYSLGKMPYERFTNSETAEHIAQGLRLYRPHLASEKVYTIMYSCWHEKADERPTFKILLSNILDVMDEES

Row | SMILES | DC50 [nM]
1 | Cc1cccc(C)c1Nc1nn(C)c2nc(Nc3ccc(C4CCN(CC5CCN(c6ccc7c(c6)C(=O)N(C6CCC(=O)NC6=O)C7=O)CC5)CC4)cc3)ncc12 (centres unmarked) [Compound 165, 5-(4-((4-(4-((3-((2,6-Dimethylphenyl)amino)-1-methyl-1H-pyrazolo[3,4-d]pyrimidin-6-yl)amino)phenyl)piperidin-1-yl)methyl)piperidin-1-yl)-2-(2,6-dioxopiperidin-3-yl)isoindoline-1,3-dione] | 0.1 to 10
2 | Cc1cccc(C)c1Nc1nn(C)c2nc(Nc3ccc(C4CCN(C[C@H]5CCN(c6ccc7c(c6)C(=O)N(C6CCC(=O)NC6=O)C7=O)C5)CC4)cc3)ncc12 (stereo partly drawn) [Compound 166, 5-((R)-3-((4-(4-((3-((2,6-Dimethylphenyl)amino)-1-methyl-1H-pyrazolo[3,4-d]pyrimidin-6-yl)amino)phenyl)piperidin-1-yl)methyl)pyrrolidin-1-yl)-2-(2,6-dioxopiperidin-3-yl)isoindoline-1,3-dione] | 0.1 to 10
3 | Cc1cccc(C)c1Nc1nn(C)c2nc(Nc3ccc(C4CCN(C5CCN(c6ccc7c(c6)C(=O)N(C6CCC(=O)NC6=O)C7=O)CC5)CC4)cc3)ncc12 (centres unmarked) [Compound 168, 5-(4-(4-((3-((2,6-Dimethylphenyl)amino)-1-methyl-1H-pyrazolo[3,4-d]pyrimidin-6-yl)amino)phenyl)-[1,4′-bipyridin]-1′-yl)-2-(2,6-dioxopiperidin-3-yl)isoindoline-1,3-dione] | 0.1 to 10
4 | Cc1cccc(C)c1Nc1nn(C)c2nc(Nc3cnc(N4CCN(CC5CCN(c6ccc7c(c6)C(=O)N(C6CCC(=O)NC6=O)C7=O)CC5)CC4)nc3)ncc12 (centres unmarked) [Compound 171, 5-(4-((4-(5-((3-((2,6-Dimethylphenyl)amino)-1-methyl-1H-pyrazolo[3,4-d]pyrimidin-6-yl)amino)pyrimidin-2-yl)piperazin-1-yl)methyl)piperidin-1-yl)-2-(2,6-dioxopiperidin-3-yl)isoindoline-1,3-dione] | 0.1 to 10
5 | Cc1cccc(C)c1Nc1nn(C)c2nc(Nc3ccc4c(c3)CCN(CC3CCN(c5ccc6c(c5)C(=O)N(C5CCC(=O)NC5=O)C6=O)CC3)C4)ncc12 (centres unmarked) [Compound 172, 5-(4-((6-((3-((2,6-Dimethylphenyl)amino)-1-methyl-1H-pyrazolo[3,4-d]pyrimidin-6-yl)amino)-3,4-dihydroisoquinolin-2 (1H)-yl)methyl)piperidin-1-yl)-2-(2,6-dioxopiperidin-3-yl)isoindoline-1,3-dione] | 0.1 to 10

Now from value to molecule:

Row | DC50 [nM] | SMILES
6 | 0.1 to 10 | Cc1cccc(C)c1Nc1nn(C)c2nc(Nc3ccc(C4CCN(C[C@@H]5CCN(c6ccc7c(c6)C(=O)N(C6CCC(=O)NC6=O)C7=O)C5)CC4)cc3)ncc12 (stereo partly drawn) [Compound 167, 5-((S)-3-((4-(4-((3-((2,6-Dimethylphenyl)amino)-1-methyl-1H-pyrazolo[3,4-d]pyrimidin-6-yl)amino)phenyl)piperidin-1-yl)methyl)pyrrolidin-1-yl)-2-(2,6-dioxopiperidin-3-yl)isoindoline-1,3-dione]
7 | 0.1 to 10 | Cc1cccc(C)c1Nc1nn(C)c2nc(Nc3ccc(C4CCN(CC5CN(c6ccc7c(c6)C(=O)N(C6CCC(=O)NC6=O)C7=O)C5)CC4)cc3)ncc12 (centres unmarked) [Compound 169, 5-(3-((4-(4-((3-((2,6-Dimethylphenyl)amino)-1-methyl-1H-pyrazolo[3,4-d]pyrimidin-6-yl)amino)phenyl)piperidin-1-yl)methyl)azetidin-1-yl)-2-(2,6-dioxopiperidin-3-yl)isoindoline-1,3-dione]
8 | 0.1 to 10 | Cc1cccc(C)c1Nc1nn(C)c2nc(Nc3ccc(C4CCN(CC5CCN(c6ccc7c(n6)CN(C6CCC(=O)NC6=O)C7=O)CC5)CC4)cc3)ncc12 (centres unmarked) [Compound 170, 3-(2-(4-((4-(4-((3-((2,6-Dimethylphenyl)amino)-1-methyl-1H-pyrazolo[3,4-d]pyrimidin-6-yl)amino)phenyl)piperidin-1-yl)methyl)piperidin-1-yl)-5-oxo-5,7-dihydro-6H-pyrrolo[3,4-b]pyridin-6-yl)piperidin-2,6-one]
